These are literature values, as cited in patent US9185913B2, “10H-benzo[g]pteridine-2,4-dione derivatives, method for the production thereof, and use thereof” (TRIOPTOTEC GMBH, priority 2011, dated 2015).

Series [1] has as its system microorganisms.
Series [2] relates to microorganisms. The source holds these as a separate data set.

Take `CC(=O)OC[C@@H](OC(C)=O)[C@@H](OC(C)=O)[C@H](Cn1c2nc(=O)[nH]c(=O)c-2nc2cc(C)c(C)cc21)OC(C)=O` [tetraacetylriboflavin]: the Inactivation of microorganisms result in the series with microorganisms [1] is given as “inadequate”. In addition, the Affinity for microorganisms entry in the series on microorganisms [2] is reported as “low”.

As for `Cc1cc2nc3c(=O)[nH]c(=O)nc-3n(C[C@H](O)[C@H](O)[C@H](O)CO)c2cc1C` [riboflavin], the Inactivation of microorganisms entry in the series with microorganisms [1] was “inadequate”. In addition, in the series with microorganisms [2], the Affinity for microorganisms result is “low”.
